What was measured:
[1] = test system: CGRP and SP afferent nerve fibers (TRPV1 axons) innervating the cat bladder; assay: Density of CGRP and SP afferent nerve fibers in cat bladder (IHC, confocal); assay type: in vivo
Procedure: To examine the effect of intravesical instillation of RTX on the bladder, 6 healthy cats, between the 2-5 years of age, were treated with either 5 (low dose), 25 (mid dose) or 50 mcg (high dose) of RTX (volume was 25 ml; concentrations were 0.2, 1, and 2 mcg/ml). These doses are considered equivalent to administration of 20, 100, or 200 mcg in a human with a volume of 100 ml. A seventh cat received saline only and served as the control. The bladders of the anesthetized cats were emptied and then flushed with sterile saline via a foley urinary catheter. Once the saline was removed, the treatment with RTX (test cats) or saline alone (control cat) was administered over 60 seconds and left in the bladder for 20 minutes.
At day 14 the cats were anesthetized and perfused with saline followed by 10% formalin. After confirmation of successful euthanasia, lumbar and sacral segments of the spinal cord with corresponding dorsal spinal ganglia, the urinary bladder and urethra were harvested and tissues were prepared for immunohistochemistry.
Previous studies have shown that TRPV1-immunoreactive axons co-express Calcitonin gene-related peptide (CGRP) and substance P (SP) (See, e.g., Sharrad et al. (2015) Neurosci. Lett., 599: 164-171; Bae et al. (2004) J. Comp. Neurol. 478: 62-71). Since feline bladder connective tissue, smooth muscle, and cell bodies of S2 DRG express CGRP+ and SP+ axons, expression of CGRP and SP were used in these studies to identify the majority of TRPV1 axons innervating the cat bladder and TRPV1+ cell bodies in cat S2 dorsal root ganglia (DRG).

bladder cancer (TCC) = assay: Preliminary anti-cancer effect by bladder ultrasound in dogs with bladder cancer (Example D); assay type: in vivo, dog
Procedure: Dogs with bladder cancer were treated with RTX as follows. Under general anesthesia, RTX was infused directly into the bladder using a foley catheter. RTX remained in the bladder for 30 minutes before removal.
The primary endpoint was assessment of improvement of lower urinary tract signs with a 4-point lower urinary tract symptom scale (character of urination/degree of straining; frequency of urination (daytime); frequency of urination (nighttime); and blood in urine). The secondary endpoints were anti-cancer effect, as measured by bladder ultrasound, and quality of life.

## C=C(C)[C@]12C[C@@H](C)[C@@]34O[C@](Cc5ccccc5)(O[C@@H]1[C@@H]3C=C(COC(=O)Cc1ccc(O)c(OC)c1)C[C@]1(O)C(=O)C(C)=C[C@@H]41)O2 [RTX, resiniferatoxin]
[1]; 5, 25 and 50 mcg single administration, 14 days post-treatment, vs saline
  density of CGRP and SP axons innervating cat bladder body: reduced
[1]; 5 mcg RTX in 25 ml saline
  density of CGRP or SP fibers in cat bladder: modest reduction
[1]; 25 and 50 mcg, day 14, vs control saline
  density of CGRP and SP-immunoreactive axons innervating cat bladder body: decreased
[1]; 25 mcg and 50 mcg in 25 ml saline
  ablation of afferent nerves: effective at ablating afferent nerves
[1]; 25 or 50 mcg in 25 ml saline, vs control
  density of CGRP and SP fibers in body, trigon and fundus: more significant reduction
Bladder cancer (TCC); Case 03-01, 9.0 kg dog, 25 ug (2.8 ug/kg), Day 84
  Best overall tumor response: change in largest tumor diameter: −30%
Bladder cancer (TCC); Case 41-02, 38.8 kg dog, 50 ug (1.3 ug/kg) dosed twice 28 days apart, Day 28
  Best Overall Response: tumor volume: −24%
